Measurements: patent US12385839B2, “Use of protein in predicting drug properties” (priority 2021, dated 2025)
Several values for one entry are separate records, joined by “and”; a condition that tells them apart may be missing. Equal entries are not always repeated. Where two headings read alike, the source gives them in different places.

What was measured:
[1] = target: T1, human serum albumin (HSA) (Homo sapiens, UniProt P02768); experiment: Fluorescence emission spectrum (quenching) of HSA with carbamate pesticides; format: binding; conditions: for Ksv (37°) / ΔG(37°) / Binding distance/r / Number of binding sites/n: modelling table; for Kq / Ksv / n (number of binding sites) / Kd / Ka (binding constant): pH 7.4; for R (binding distance): Förster energy transfer; for fluorescence of HSA quenched by pesticide: titration of pesticide; for ΔH^0 / ΔS^0: Van't Hoff, 296-310 K
T1 sequence (P02768 25-609): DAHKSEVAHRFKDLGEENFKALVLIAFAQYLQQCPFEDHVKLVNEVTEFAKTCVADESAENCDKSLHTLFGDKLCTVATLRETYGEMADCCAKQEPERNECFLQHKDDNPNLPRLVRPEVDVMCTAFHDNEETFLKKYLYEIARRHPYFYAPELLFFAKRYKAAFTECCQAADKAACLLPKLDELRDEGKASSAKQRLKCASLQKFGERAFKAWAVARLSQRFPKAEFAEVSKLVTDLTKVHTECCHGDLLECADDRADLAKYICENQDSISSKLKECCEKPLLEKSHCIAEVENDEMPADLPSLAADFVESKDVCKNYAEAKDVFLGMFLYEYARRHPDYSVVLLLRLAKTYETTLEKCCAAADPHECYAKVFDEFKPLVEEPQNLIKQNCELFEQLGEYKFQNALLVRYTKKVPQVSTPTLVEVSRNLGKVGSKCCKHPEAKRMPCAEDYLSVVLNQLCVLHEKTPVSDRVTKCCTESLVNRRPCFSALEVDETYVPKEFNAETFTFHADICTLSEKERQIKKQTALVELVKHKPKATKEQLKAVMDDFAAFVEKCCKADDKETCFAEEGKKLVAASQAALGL
Description: the mixed solution to be tested was preheated at […] for 3 minutes, and the emission spectrum of HSA with carbamate pesticides was measured at 300-500 nm . The excitation wavelength was set at 280 nm , and the slit width for both excitation and emission was 15 nm; the HSA concentration was kept constant at 5×10^−7 M, and the pesticide concentration was (0-105)×10^−7 M.
The internal filtering effect of fluorescence signal was corrected according to the following formula: Fcor=Fobsexp[(Aex+Aem)/2] (1);
in this formula, Fcor and Fobs represent corrected fluorescence signal and observed fluorescence signal, respectively, and Aex and Aem represent absorbance of the mixed solution to be tested at excitation wavelength and emission wavelengths, respectively; the quenching constant, number of binding sites, binding constant, free energy and binding distance of different drugs were obtained by fluorescence emission spectra, and a BP neural network model was obtained. Specifically, they were obtained as follows:
There is a linear relationship between F0/F and [Q] to distinguish whether it is static quenching or dynamic quenching. The fluorescence quenching data are analyzed by Stern-Volmer equation to clarify the quenching mechanism: F0/F=1+KSV[Q]=1+Kqτ0[Q] (2);
in the formula, F0 and F are fluorescence signals […] quencher, respectively. Ksv is Stern-Volmer quenching constant; Kq is a quenching rate constant of biomolecules; τ0 is the average lifetime of biomolecules without quencher (about 10^−8 s); [Q] is the concentration of quencher.
The maximum dynamic quenching rate constant of all kinds of quenchers on polymers was 2.0×10^10 L·mol^−1·s^−1. Static quenching and dynamic quenching could be judged according to this value. If K^q was greater than 2.0×10^10 L·mol^−1·s^−1, it belonged to static quenching. Otherwise, it belonged to dynamic quenching.
In this part, the binding sites and binding constants between carbamate pesticides and HSA were calculated. The following formula was used to calculate the number of binding sites (n) and the binding constant (Ka) of carbamate pesticides and HSA: log[(F0−F)/F]=log Ka+nlog[Q] (3);
The interactions between biological molecules and drug molecules were weak intermolecular interactions, including hydrogen bonds, van der Waals forces, electrostatic forces and hydrophobic interactions. By using Van't Hoff equation, the thermodynamic constants of drug-protein interaction were obtained, and the main types of drug-protein interaction were judged according to the changes of binding constants under different conditions. LnK=−ΔH^0/RT+ΔS^0/R (4); ΔG^0=ΔH^0−TΔS^0 (5);
There is a relationship among energy transfer efficiency E, distance r between energy donor and energy receptor and energy transfer distance R0. E=1−F/F0=R0^6/(R0^6+r^6) (6);
E represents the transfer efficiency between donor and receptor, r is the average distance between donor and receptor, and R0 is the critical distance when the transfer efficiency is 50%. R0^6=8.79×10^−K^2N^−4φJ (7)
K^2 is the orientation related to the geometry of donor and receptor of dipole. For random orientation in fluid, K^2=2/3; N is the average refractive index of the medium in the wavelength range with obvious spectral overlap, and the refractive index of water and organic matter is 1.336; φ is the quantum yield of donor, and the quantum yield of tryptophan in HSA is about 0.118; J represents the influence of spectral overlap between the emission spectrum of the donor and the absorption spectrum of the receptor, and can be calculated by the following formula: j=ΣF(λ)ϵ(λ)λ^4Δλ/ΣF(λ) Δλ (8);
F(λ) is the corrected fluorescence signal of the donor in the wavelength range from λ to (λ+Δλ), while ϵ(λ) is the extinction coefficient of the receptor at λ.

[2] = target: T1, human serum albumin (HSA); experiment: Circular dichroism spectrum, secondary structure (α-helix content) of HSA; conditions: HSA 2×10^−6 M
Description: the mixed solution to be tested was preheated at […] for 2-5 minutes, and the CD spectrum of HSA was recorded in the wavelength range of 200-500 nm . The concentration of HSA was kept at 2×10^−6 M, and the pesticide was (0-20)×10^−6 m. Firstly, HSA was measured, and then the ratio of HSA to pesticides needed to be determined specifically, which was preliminarily determined according to the ratio of 1:1, 1:2 and 1:3.
According to the following equation, the result of CD spectrum was usually expressed as the mean residue ellipticity (MRE), and the unit was deg·cm^2·dmol^−1. MRE=ObservedCD(mdeg)/(10Cpnl) (9);
in which Cp is the molar concentration of protein, n is the number (585) of amino acid residues, and 1 is the path length (1 mm). The α helicity of free and bound HSA is calculated from MRE values using the following formula: α−Helix(%)=[(−MRE208−4000)×100]/(33000-4000) (10)
in which the MRE208 is the MRE value observed at 208 nm , 4000 is the MRE value of random coil conformation at 208 nm , and […] is the MRE value of pure α helix at 208 nm .

[3] = cited from earlier work; for LD50: modelling table; for Toxicity: toxicity grade by LD50, trailing figure = number of pesticides in group

Row | Compound | Ksv (37°) [1] | ΔG^0 ([1]; 296 K) [kJ/mol] | Kq ([1]; 296 K) | Ksv ([1]; 296 K) | n (number of binding sites) ([1]; 296 K) | ΔG^0 ([1]; 303 K) [kJ/mol] | Kq ([1]; 303 K) | Ksv ([1]; 303 K) | n (number of binding sites) ([1]; 303 K) | ΔG^0 ([1]; 310 K) [kJ/mol] | R (binding distance) ([1]; 310 K) [nm] | Kq ([1]; 310 K) | Ksv ([1]; 310 K) | n (number of binding sites) ([1]; 310 K) | fluorescence of HSA quenched by pesticide ([1]; 310 K) | ΔH^0 [1] [kJ/mol] | ΔS^0 [1] [J · mol^−1 · K^−1] | Number of binding sites/n [1] | α-helix contents ([2]; 5:1 (Pesticide:HSA)) [%] | α-helix contents ([2]; 10:1 (Pesticide:HSA)) [%] | also measured
1 | CNC(=O)O/N=C(\SC)C(=O)N(C)C [Oxamyl, oxamyl] | 66054.55780 | -20.331 | 5.229 ± 0.185 10^12 M^−1s^−1 | 5.229 ± 0.185 10^4 M^−1 | 0.774 ± 0.016 | -21.581 | 5.735 ± 0.073 10^12 M^−1s^−1 | 5.735 ± 0.073 10^4 M^−1 | 0.789 ± 0.004 | -22.831 | 2.564 | 6.605 ± 0.058 10^12 M^−1s^−1 | 6.605 ± 0.058 10^4 M^−1 | 0.807 ± 0.003 | quenched | 32.515 | 178.534 | 0.8074 | 50.883 | 49.354 | ΔG(37°) [1]: −22.83; Kd ([1]; 296 K, read-out: Ka (binding constant)): 255 µM; Kd ([1]; 303 K, read-out: Ka (binding constant)): 195 µM; Kd ([1]; 310 K, read-out: Ka (binding constant)): 141 µM; Binding distance/r [1]: 2.564; LD50 [3]: 2.5 mg/kg; Toxicity [3]: Highly
2 | CNC(=O)Oc1cc(C)cc(C(C)C)c1 [Promecarb, promecarb] | 58172.07681 | -14.733 | 2.409 ± 0.154 10^12 M^−1s^−1 | 2.409 ± 0.154 10^4 M^−1 | 0.645 ± 0.004 | -18.058 | 3.705 ± 0.060 10^12 M^−1s^−1 | 3.705 ± 0.060 10^4 M^−1 | 0.704 ± 0.008 | -21.383 | 2.316 | 5.817 ± 0.219 10^12 M^−1s^−1 | 5.817 ± 0.219 10^4 M^−1 | 0.769 ± 0.009 | quenched | 125.885 | 475.061 | 0.7688 | 48.610 | 48.538 | ΔG(37°) [1]: −21.38; Kd ([1]; Ka (binding constant), 296 K): 2430 µM; Kd ([1]; Ka (binding constant), 303 K): 822 µM; Kd ([1]; Ka (binding constant), 310 K): 241 µM; Binding distance/r [1]: 2.316; LD50 [3]: 35 mg/kg; Toxicity [3]: Highly
3 | CNC(=O)Oc1ccccc1OC(C)C [Propoxur, propoxur] | 50525.98687 | -17.536 | 3.425 ± 0.132 10^12 M^−1s^−1 | 3.425 ± 0.132 10^4 M^−1 | 0.706 ± 0.014 | -19.082 | 4.353 ± 0.121 10^12 M^−1s^−1 | 4.353 ± 0.121 10^4 M^−1 | 0.729 ± 0.013 | -20.627 | 3.138 | 5.053 ± 0.120 10^12 M^−1s^−1 | 5.053 ± 0.120 10^4 M^−1 | 0.757 ± 0.011 | quenched | 47.825 | 220.816 | 0.7565 | 50.121 | 49.341 | ΔG(37°) [1]: −20.63; Kd ([1]; Ka (binding constant), 296 K): 794 µM; Kd ([1]; Ka (binding constant), 303 K): 527 µM; Kd ([1]; Ka (binding constant), 310 K): 330 µM; Binding distance/r [1]: 3.138; LD50 [3]: 41 mg/kg; Toxicity [3]: Highly
4 | CNC(=O)ON=C(CSC)C(C)(C)C [Thiofanox, thiofanox] | 58762.03726 | -17.949 | 3.871 ± 0.035 10^12 M^−1s^−1 | 3.871 ± 0.035 10^4 M^−1 | 0.714 ± 0.014 | -19.107 | 4.728 ± 0.064 10^12 M^−1s^−1 | 4.728 ± 0.064 10^4 M^−1 | 0.725 ± 0.005 | -20.265 | 1.883 | 5.876 ± 0.198 10^12 M^−1s^−1 | 5.876 ± 0.198 10^4 M^−1 | 0.730 ± 0.003 | quenched | 31.025 | 165.452 | 0.7299 | 48.904 | 48.180 | ΔG(37°) [1]: −20.27; Kd ([1]; Ka (binding constant), 296 K): 688 µM; Kd ([1]; Ka (binding constant), 303 K): 496 µM; Kd ([1]; Ka (binding constant), 310 K): 390 µM; Binding distance/r [1]: 1.883; LD50 [3]: 8.5 mg/kg; Toxicity [3]: Highly
5 | CNC(=O)O/N=C(\CS(C)(=O)=O)C(C)(C)C [Thiofanox-sulfone, thiofanox sulfone] | 55736.87796 and 53392.17364 | -18.004 | 3.906 ± 0.043 10^12 M^−1s^−1 | 3.906 ± 0.043 10^4 M^−1 | 0.719 ± 0.011 | -20.751 | 4.102 ± 0.034 10^12 M^−1s^−1 | 4.102 ± 0.034 10^4 M^−1 | 0.786 ± 0.008 | -23.497 | 2.907 | 5.574 ± 0.138 10^12 M^−1s^−1 | 5.574 ± 0.138 10^4 M^−1 | 0.848 ± 0.004 | quenched | 98.120 | 392.314 | 0.8476 and 0.7456 | 51.076 | 50.482 | Ka (binding constant) ([1]; 296 K): (1.559 ± 0.162) × 10^3 M^−1; Ka (binding constant) ([1]; 303 K): (3.514 ± 0.247) × 10^3 M^−1; Ka (binding constant) ([1]; 310 K): (9.450 ± 0.597) × 10^3 M^−1; Toxicity [3]: Highly
